± gives the expanded uncertainty stated by the source.

For data set [1] the following is noted: Crystal; DTA.
Data set [2] in a line: Molar enthalpy of transition or fusion. Particulars: Crystal; DSC.

With `CCCCCCCCCCCCCCCC(=O)OCC` [ethyl hexadecanoate], the Normal melting temperature in data set [1] came out at 24.78 ± 2 °C. For the same compound, the “Molar enthalpy of transition or fusion” value in data set [2] stood at 12.7 ± 4.78 kcal/mol.

On to `CCCCCCCCCCCCC1CCCCC1` [dodecylcyclohexane], for which, in data set [1], the Normal melting temperature came out at 13.63 ± 2 °C. Also, in data set [2], the “Molar enthalpy of transition or fusion” value is 10.8 ± 2.17 kcal/mol.

As for `CCCCCCCCCCCC(=O)OCC` [ethyl dodecanoate], the Normal melting temperature in data set [1] is -0.92 ± 2 °C. Besides, the “Molar enthalpy of transition or fusion” value in data set [2] was found to be 9.15 ± 1.84 kcal/mol.

The values above are taken from the NIST ThermoML archive (doi:10.1016/j.fluid.2015.09.038).
